Measurements taken from ChEMBL document CHEMBL1122916, “Synthesis of xanthines as adenosine antagonists, a practical quantitative structure-activity relationship application” (J Med Chem, 1985).
Converted amounts (≈) assume the structure as drawn.

Assays:
Adenosine receptor A1 [1] = target: T1, Adenosine receptor A1 (Rattus norvegicus, UniProt P25099); experiment: Binding affinity against rat brain adenosine A1 receptor by using N6-[3H]- cyclohexyladenosine as radioligand
T1 sequence (P25099 whole entry): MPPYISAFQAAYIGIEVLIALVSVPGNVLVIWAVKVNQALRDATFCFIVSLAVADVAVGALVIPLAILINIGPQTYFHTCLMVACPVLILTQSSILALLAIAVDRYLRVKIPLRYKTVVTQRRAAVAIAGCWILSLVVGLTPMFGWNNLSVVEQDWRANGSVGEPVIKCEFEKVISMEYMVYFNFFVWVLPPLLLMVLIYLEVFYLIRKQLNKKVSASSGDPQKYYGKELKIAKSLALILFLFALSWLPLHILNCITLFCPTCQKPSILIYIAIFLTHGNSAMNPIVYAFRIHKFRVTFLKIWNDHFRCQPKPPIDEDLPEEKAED

Adenosine receptor A1 [2] = target: T2, Adenosine receptor A1 (Bos taurus, UniProt P28190)
T2 sequence (P28190 whole entry): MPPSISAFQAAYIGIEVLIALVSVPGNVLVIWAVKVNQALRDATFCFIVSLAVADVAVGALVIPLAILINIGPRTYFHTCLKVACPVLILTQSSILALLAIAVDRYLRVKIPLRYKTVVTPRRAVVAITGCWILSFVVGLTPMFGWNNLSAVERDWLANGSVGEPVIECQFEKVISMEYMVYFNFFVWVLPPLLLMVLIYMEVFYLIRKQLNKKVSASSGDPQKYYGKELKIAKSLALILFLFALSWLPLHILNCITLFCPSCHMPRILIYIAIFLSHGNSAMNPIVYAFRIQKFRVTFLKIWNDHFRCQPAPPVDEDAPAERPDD
Description: Binding affinity against bovine brain adenosine A1 receptor by using N6-[3H]- cyclohexyladenosine

Bos taurus = species on record: Bos taurus; experiment: log(1000/IC50 determined from bovine brain membrane) expressed as potency; assay type: functional
[3] = Solubility in 0.1 M phosphate buffer at pH 7.4; assay type: physicochemical
[4] = Partition coefficient (logP); assay type: physicochemical; details: octanol/water
[5] = Solubility in 0.1 N HCl; assay type: physicochemical
[6] = Equilibrium constant (pKa) was determined.; assay type: physicochemical
[7] = phosphate buffer, read-out: Solubility

Structure (SMILES) | IC50 (Adenosine receptor A1 [2]) [nM] | Potency (Bos taurus) | further results
CCCn1c(=O)c2nc(-c3ccc(S(=O)(=O)NCCCC(=O)OCC)cc3)[nH]c2n(CCC)c1=O | 0.24 | – | IC50 (Adenosine receptor A1 [1]): 18.5 nM
CC(C)c1ccc(-c2nc3c(=O)n(C)c(=O)n(C)c3[nH]2)cc1 | – | 2.6 | –
Cn1c(=O)c2nc(-c3ccccc3F)[nH]c2n(C)c1=O | – | 1.9 | –
CCc1ccc(-c2nc3c(=O)n(C)c(=O)n(C)c3[nH]2)cc1 | – | 3.1 | –
C=CCn1c(=O)c2nc(-c3ccc(Cl)cc3N)[nH]c2n(CC=C)c1=O | – | 3.1 | –
CN(C)c1ccc(-c2nc3c(=O)n(C)c(=O)n(C)c3[nH]2)cc1 | – | 2.74 | –
Cn1c(=O)c2nc(-c3ccc(O)cc3)[nH]c2n(C)c1=O | – | 2.7 | –
C=CCn1c(=O)c2[nH]c(-c3ccc(Cl)cc3N)nc2n(C)c1=O | – | 2.7 | –
Cn1c(=O)c2nc(-c3ccc(Cl)cc3N)[nH]c2n(C)c1=O | – | 3.46 | –
CCn1c(=O)c2[nH]c(-c3cccc(S(=O)(=O)O)c3)nc2n(CC)c1=O | 8420 | – | IC50 (Adenosine receptor A1 [1]): 30700 nM
CCCCOc1ccc(-c2nc3c(=O)n(C)c(=O)n(C)c3[nH]2)cc1 | – | 2.4 | –
Cn1c(=O)c2nc(-c3ccccc3C(=O)O)[nH]c2n(C)c1=O | – | -0.4 | –
CCn1c(=O)c2nc(-c3ccc(Br)cc3)[nH]c2n(CC)c1=O | – | 3 | –
CCn1c(=O)c2[nH]c(-c3ccc(S(=O)(=O)N4CCOCC4)cc3)nc2n(CC)c1=O | 13 | – | IC50 (Adenosine receptor A1 [1]): 310 nM
CCn1c(=O)c2[nH]c(-c3ccc(N(C)C)cc3)nc2n(CC)c1=O | 3.3 | – | IC50 (Adenosine receptor A1 [1]): 118 nM
Cn1c(=O)c2nc(-c3ccc(Br)cc3)[nH]c2n(C)c1=O | – | 3.12 | –
C=CCn1c(=O)c2[nH]c(-c3ccc(C)cc3N)nc2n(C)c1=O | – | 2.15 | –
Cn1c(=O)c2nc(-c3ccccc3[N+](=O)[O-])[nH]c2n(C)c1=O | – | 1.1 | –
CCCn1c(=O)c2[nH]c(-c3ccc(S(=O)(=O)O)cc3)nc2n(CCC)c1=O | 3.4 | – | solubility [3, 7]: > 24000 µg/mL; logP [4]: -0.03; IC50 (Adenosine receptor A1 [1]): 120 nM; solubility [5]: 1300 µg/mL (≈ 3.31 mM); pKa [6]: < 2
Cn1c(=O)c2nc(-c3ccc(I)cc3)[nH]c2n(C)c1=O | – | 2.89 | –
Cn1c(=O)c2nc(-c3cccc(O)c3)[nH]c2n(C)c1=O | – | 2.22 | –

Structure (SMILES) | IC50 (Adenosine receptor A1 [2]) [nM] | Potency (Bos taurus) | further results
Cn1c(=O)[nH]c2[nH]c(-c3ccccc3)nc2c1=O | – | 2.6 | –
CCn1c(=O)c2[nH]c(-c3ccc(S(=O)(=O)O)cc3)nc2n(CC)c1=O | 755 | – | solubility [3, 7]: > 57000 µg/mL; logP [4]: -0.97; IC50 (Adenosine receptor A1 [1]): 5540 nM; solubility [5]: > 8000 µg/mL; pKa [6]: < 2
Cn1c(=O)c2nc(-c3cccc(N)c3)[nH]c2n(C)c1=O | – | 2 | –
CCCn1c(=O)c2nc(-c3ccc(S(=O)(=O)NCCN(C)C)cc3)[nH]c2n(CCC)c1=O | 0.05 | – | solubility ([3]; buffer): 50 µg/mL (≈ 0.108 mM); logP [4]: 3.32; IC50 (Adenosine receptor A1 [1]): 6.5 nM; solubility [5]: 19900 µg/mL (≈ 43 mM); pKa [6]: 6
COc1ccc(-c2nc3c(=O)n(C)c(=O)n(C)c3[nH]2)c(OC)c1 | – | 0.7 | –
Cn1c(=O)c2nc(-c3cccc(Br)c3)[nH]c2n(C)c1=O | – | 2 | –
Cn1c(=O)c2nc(-c3ccc4ccccc4c3)[nH]c2n(C)c1=O | – | 2.26 | –
Cn1c(=O)c2nc(-c3ccc(F)cc3)[nH]c2n(C)c1=O | – | 2.46 | –
Cn1c(=O)c2nc(-c3cccc(C(=O)O)c3)[nH]c2n(C)c1=O | – | 0 | –
CCCn1c(=O)c2nc(-c3ccc(N)cc3N)[nH]c2n(CCC)c1=O | 0.15 | 3.82 | –
CCCn1c(=O)c2nc(-c3ccc(Cl)cc3N)[nH]c2n(CCC)c1=O | – | 4.3 | –
CCCn1c(=O)c2nc(-c3ccc(S(=O)(=O)NCCCCN(C)C)cc3)[nH]c2n(CCC)c1=O | 0.07 | – | IC50 (Adenosine receptor A1 [1]): 7.5 nM
CCn1c(=O)c2nc(-c3cccc(S(=O)(=O)NCCN(C)C)c3)[nH]c2n(CC)c1=O | 29.4 | – | IC50 (Adenosine receptor A1 [1]): 553 nM
Cn1c(=O)c2nc(-c3cccc4ccccc34)[nH]c2n(C)c1=O | – | 1.1 | –
Cn1c(=O)c2nc(-c3ccccc3O)[nH]c2n(C)c1=O | – | 2 | –
CCCn1c(=O)c2[nH]c(-c3ccc(S(=O)(=O)NCCCN(C)C)cc3)nc2n(CCC)c1=O | 0.08 | – | IC50 (Adenosine receptor A1 [1]): 8.2 nM
C=CCn1c(=O)c2nc(-c3ccc(S(=O)(=O)NCCCN(C)C)cc3)[nH]c2n(CC=C)c1=O | 10.3 | – | –
Cn1c(=O)c2nc(-c3ccc(Cl)c(Cl)c3)[nH]c2n(C)c1=O | – | 2.3 | –
Cn1c(=O)c2nc(-c3ccc(N)cc3)[nH]c2n(C)c1=O | – | 2.76 | –
CCn1c(=O)c2nc(-c3ccc(S(=O)(=O)NCCN(C)C)cc3)[nH]c2n(CC)c1=O | 3.3 | – | solubility [3, 7]: 110 µg/mL (≈ 0.253 mM); logP [4]: 2.57; IC50 (Adenosine receptor A1 [1]): 116 nM; solubility [5]: 11500 µg/mL (≈ 26.5 mM); pKa [6]: 6.8
